Assay results: the supplement of paper PMC10307832

Legend:
Assay in all cases: relative viability (nuclei count vs DMSO), 5 days (fraction); higher = more cells survive
GW-2580 + Vorinostat = compound: COC1=CC=C(C=C1)COC2=C(C=C(C=C2)CC3=CN=C(N=C3N)N)OC [GW-2580] + O=C(CCCCCCC(=O)Nc1ccccc1)NO [Vorinostat] (partner 1 µM)
Method in brief: (§1)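 For relative viability, nuclei counts in treated wells were divided by those in vehicle wells. Lung cancer cell lines had been pin-tool dosed in 1536-well plates the day after seeding and cultured for 5 days, then fixed and stained in one step (final 0.05% Triton X-100, 1% formaldehyde, 1 ug/ml Hoechst) and imaged at 4×. Doses were one drug alone or a fixed anchor-drug dose plus five library-drug doses (not always all listed) in √10 steps, and values are duplicate-plate medians.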

Fedratinib + Navitoclax = compound: Cc1cnc(Nc2ccc(OCCN3CCCC3)cc2)nc1Nc1cccc(S(=O)(=O)NC(C)(C)C)c1 [Fedratinib] + CC1(C)CCC(c2ccc(Cl)cc2)=C(CN2CCN(c3ccc(C(=O)NS(=O)(=O)c4ccc(N[C@H](CCN5CCOCC5)CSc5ccccc5)c(S(=O)(=O)C(F)(F)F)c4)cc3)CC2)C1 [Navitoclax] (partner 0.5 µM)
Method in brief: as §1

Fedratinib + Pictilisib = compound: Cc1cnc(Nc2ccc(OCCN3CCCC3)cc2)nc1Nc1cccc(S(=O)(=O)NC(C)(C)C)c1 [Fedratinib] + CS(=O)(=O)N1CCN(Cc2cc3nc(-c4cccc5[nH]ncc45)nc(N4CCOCC4)c3s2)CC1 [Pictilisib] (partner 1 µM)
Method in brief: as §1

Fedratinib + Linsitinib = compound: Cc1cnc(Nc2ccc(OCCN3CCCC3)cc2)nc1Nc1cccc(S(=O)(=O)NC(C)(C)C)c1 [Fedratinib] + C[C@]1(O)C[C@@H](c2nc(-c3ccc4ccc(-c5ccccc5)nc4c3)c3c(N)nccn32)C1 [Linsitinib] (partner 1 µM)
Method in brief: as §1

GW-2580 + OSI-027 = compound: COC1=CC=C(C=C1)COC2=C(C=C(C=C2)CC3=CN=C(N=C3N)N)OC [GW-2580] + COc1cccc2cc(-c3nc([C@H]4CC[C@H](C(=O)O)CC4)n4ncnc(N)c34)[nH]c12 [OSI-027] (partner 0.5 µM)
Method in brief: as §1

Row | Cell Line | relative viability (GW-2580 + Vorinostat; first compound 0.08 µM) | relative viability (GW-2580 + Vorinostat; first compound 0.8 µM) | relative viability (GW-2580 + Vorinostat; first compound 2.53 µM) | relative viability (GW-2580 + Vorinostat; first compound 8 µM) | relative viability (Fedratinib + Navitoclax; first compound 0.1 µM) | relative viability (Fedratinib + Navitoclax; first compound 0.3162 µM) | relative viability (Fedratinib + Navitoclax; first compound 1 µM) | relative viability (Fedratinib + Pictilisib; first compound 0.1 µM) | relative viability (Fedratinib + Pictilisib; first compound 0.3162 µM) | relative viability (Fedratinib + Pictilisib; first compound 1 µM) | relative viability (Fedratinib + Linsitinib; first compound 0.1 µM) | relative viability (Fedratinib + Linsitinib; first compound 0.3162 µM) | relative viability (Fedratinib + Linsitinib; first compound 1 µM) | relative viability (GW-2580 + OSI-027; first compound 0.08 µM) | relative viability (GW-2580 + OSI-027; first compound 0.8 µM) | relative viability (GW-2580 + OSI-027; first compound 2.53 µM) | relative viability (GW-2580 + OSI-027; first compound 8 µM)
1 | 201T | 1.01 | 0.949 | 0.992 | 0.883 | 1.16 | 1.18 | 1.21 | 0.679 | 0.705 | 0.601 | 1.03 | 1.02 | 0.974 | 0.647 | 0.994 | 1.09 | 0.797
2 | A549 |  |  |  |  | 1.55 | 1.2 | 1.1 | 0.531 | 0.465 | 0.434 | 0.56 | 0.539 | 0.601 |  |  |  | 
3 | A-427 | 0.534 | 0.97 | 0.806 | 0.848 | 0.973 | 0.905 | 0.933 | 0.639 | 0.758 | 0.329 | 1.13 | 1.05 | 1.11 | 0.453 | 0.371 | 0.518 | 0.435
4 | ABC-1 | 0.972 | 1.17 | 1.06 | 0.98 |  |  |  | 0.694 | 0.809 | 0.318 | 0.625 | 0.859 | 0.713 | 0.471 | 0.533 | 0.502 | 0.53
5 | BEN | 0.587 | 0.565 | 0.559 | 0.633 | 0.0815 | 0.055 | 0.0392 | 0.477 | 0.575 | 0.498 | 0.779 | 0.914 | 0.852 | 0.281 | 0.273 | 0.267 | 0.31
